Reference: US7744860B2, “Reduced bioirritant composition” (Minu LLC, priority 1999, dated 2010)
Several values for one entry are separate records, joined by “and”; a condition that tells them apart may be missing. Equal entries are not always repeated. Entries after “also recorded” stand apart in the source; their conditions may differ.

Assays:
[1] = tested on: corneal neovascularization; assay: silver nitrate cauterization induced corneal neovascularization, topical treatment; type: in vivo, male Long Evans pigmented rats; details: for Degree of Corneal Neovascularization, OD / Degree of Corneal Neovascularization, OS / mean inhibition of neovascularization / mean percent of neovascularization relative to total corneal area: topical twice a day for seven days; for Degree of Corneal Neovascularization, OD / Degree of Corneal Neovascularization, OS: individual subjects
Experimental: Neovascularization was induced in all eyes using silver nitrate cauterization. The animals were first anesthetized by intraperitoneal injection of a mixture of ketamine hydrochloride (25 mg/kg) with xylazine hydrochloride (5 mg/kg). The cornea was then anesthetized by a drop of 0.5% proparacaine hydrochloride and allowed to dry. One cornea of each animal was cauterized by pressing an applicator stick (diameter of 1.8 mm) coated with 75% silver nitrate/25% potassium nitrate (Arzol Chemical Co., Keen, N.H.) to the central cornea for ten seconds (using a stopwatch) under the operating microscope. Excess silver nitrate was removed by rinsing the eyes with 5 ml balanced salt solution. To increase the reproducibility of the injuries, one investigator cauterized all animals. Following cauterization, the animals were randomly divided into six groups to eliminate any potential bias in the degree of burns within the different groups. Two drops of each drug were applied topically to each cornea immediately following cauterization; treatments were administered two times per day for seven days.
Group 1 (number of animals (n)=8) received 100 mg/ml pH non-neutralized ascorbic acid. All remaining experimental groups received ascorbic acid neutralized to about pH 7 as previously described in the following concentrations: Group 2 (n=8) received 100 mg/ml (10%^w/v) neutralized ascorbic acid; Group 3 (n=8) received 50 mg/ml (5%^w/v) neutralized ascorbic acid; Group 4 (n=8) received 10 mg/ml (1%^w/v) neutralized ascorbic acid; Group 5 (n=8) received 5 mg/ml neutralized ascorbic acid (0.5%^w/v); Group 6 (n=8) received 1 mg/ml neutralized ascorbic acid (0.1%^w/v); Group 7 (n=8) received 500 μg/ml neutralized ascorbic acid (0.05%^w/v); Group 8 (n=8) received 250 μg/ml neutralized ascorbic acid (0.025%^w/v). Group 9 (n=8) received two drops of saline and served as the control. All concentrations of ascorbic acid were titrated with saline.
The presence of new vessels (neovascularization) and the extent of new vessel formation was assessed by slit lamp photography and in some embodiments, by histology. Inhibition of vessel proliferation was evaluated by measuring vessel progression from the outer cornea (corneal limbus) into the cornea. As previously described, it will be appreciated that any reduction of new vessel proliferation and/or regression of existing vessels is therapeutic, and that complete inhibition and/or regression is not required, and also that reduction includes regression of existing vessels.
All animals were anesthetized as described above and their corneas evaluated by slit-lamp microscopy on the third and sixth days. Corneal photographs were taken with ×25 magnification using a camera attached to the slit-lamp microscope (Topcon SL-7E, Tokyo Japan) on the seventh day. Neovascularization was evaluated by an examiner who was blinded as to the treatment groups to minimize the observer bias.
Corneal neovascularization was assessed by scanning (Cano scan 9900F, Canon, Tokyo Japan) the slit lamp photographs into high resolution digital images. The corneal surface covered with neovascular vessels was measured on the photographs as the percentage of the total area of the cornea. The percentage area of corneal neovascularization was determined by outlining the areas with corneal vessels and comparing these to the total corneal surface using image j software (Wayne Rasband at the Research Services Branch,-National Institute of Mental Health, Bethesda Md.). The area of neovascularization was measured in terms of pixels and its ratio to the entire corneal area was determined as the percentage of corneal neovascularization. The extent of the scar was also evaluated by calculating the percentage of the corneal surface that was covered by the scar. A drawing of corneal blood vessels was made to compare with digital photos and ensure that no vascular area was omitted during calculation of percent area. […]

[2] = electroretinogram (ERG) after ascorbic acid administration; type: in vivo, Rats
Experimental: The effect of pH neutralized and non-neutralized ascorbic acid administered topically to eyes at various concentrations was determined. Rats were subject to induced corneal neovascularization as previously described and administered pH neutralized and non-neutralized ascorbic acid and saline (control) at the same concentrations as previously described. An electroretinogram (ERG) was performed to evaluate the eye's electrical responses to a flash of light using an electrode placed on the surface of the eye (e.g., cornea) as known to one skilled in the art.

[3] = 100 mg/ml, mean ± standard deviation, n = 8
[4] = 100 mg/ml, listed as pH neutralized ascorbic acid

## O=C1O[C@H]([C@@H](O)CO)C(O)=C1O [Ascorbic Acid pH Neutralized, ascorbic acid]
[1]; 250 μg (250 μg/ml)
  Degree of Corneal Neovascularization, OD: 68% and 69% and 70% and 61%
  Degree of Corneal Neovascularization, OS: 65% and 63% and 66% and 48%
[1]; 250 μg/ml
  mean inhibition of neovascularization: about 33%
[1]; 250 μg/ml, FIG. 2
  mean percent of neovascularization relative to total corneal area: about 67%
[1]; 250 μg/ml, listed as neutralized ascorbic acid
  mean inhibition of neovascularization: differences were not significant
[1]; 500 μg (500 μg/ml)
  Degree of Corneal Neovascularization, OD: 54% and 69% and 70% and 61%
  Degree of Corneal Neovascularization, OS: 50% and 63% and 66% and 48%
[1]; 500 μg/ml
  mean inhibition of neovascularization: about 40%
[1]; 500 μg/ml, mean ± standard deviation, n = 8
  mean percent of neovascularization relative to total corneal area: mean = 60.1 ± 8.5% (n = 8)
[1]; 500 μg/ml, mean ± standard deviation, n = 8, listed as ascorbic acid pH neutralized
  mean percent of neovascularization relative to total corneal area: about 60%
[1]; 500 μg/ml, mean ± standard deviation, n = 8, listed as neutralized ascorbic acid
  mean percent of neovascularization relative to total corneal area: 60.1%
[1]; 500 μg/ml, listed as neutralized ascorbic acid
  mean inhibition of neovascularization: 39.9%
[1]; 1 mg (1 mg/ml)
  Degree of Corneal Neovascularization, OD: 49% and 15% and 48% and 5%
  Degree of Corneal Neovascularization, OS: 47% and 27% and 29% and 17%
[1]; 1 mg/ml
  mean inhibition of neovascularization: about 69%
[1]; 1 mg/ml, mean ± standard deviation
  mean percent of neovascularization relative to total corneal area: mean = 29.6 ± 16.9%
[1]; 1 mg/ml, mean ± standard deviation, listed as ascorbic acid pH neutralized
  mean percent of neovascularization relative to total corneal area: about 31%
[1]; 1 mg/ml, listed as neutralized ascorbic acid
  mean inhibition of neovascularization: significant inhibition compared to control eyes
[1]; 5 mg (5 mg/ml)
  Degree of Corneal Neovascularization, OD: 20% and 35% and 0% and 60%
  Degree of Corneal Neovascularization, OS: 60% and 26% and 30% and 0%
[1]; 5 mg/ml
  mean inhibition of neovascularization: about 70%
[1]; 5 mg/ml, mean ± standard deviation, n = 8
  mean percent of neovascularization relative to total corneal area: mean = 28.9 ± 23.1% (n = 8)
[1]; 5 mg/ml, mean ± standard deviation, n = 8, listed as ascorbic acid pH neutralized
  mean percent of neovascularization relative to total corneal area: about 30%
[1]; 5 mg/ml, listed as neutralized ascorbic acid
  mean inhibition of neovascularization: significant inhibition compared to control eyes
[1]; 10 mg (10 mg/ml)
  Degree of Corneal Neovascularization, OD: 0% and 31% and 20% and 22%
  Degree of Corneal Neovascularization, OS: 0% and 27% and 15% and 26%
[1]; 10 mg/ml
  mean inhibition of neovascularization: about 81%
[1]; 10 mg/ml, mean ± standard deviation, n = 8
  mean percent of neovascularization relative to total corneal area: mean = 17.6 ± 11.9% (n = 8)
[1]; 10 mg/ml, mean ± standard deviation, n = 8, listed as ascorbic acid pH neutralized
  mean percent of neovascularization relative to total corneal area: about 19%
[1]; 10 mg/ml, listed as neutralized ascorbic acid
  mean inhibition of neovascularization: significant inhibition compared to control eyes
[1]; 50 mg (50 mg/ml)
  Degree of Corneal Neovascularization, OD: 10% and 15% and 32% and 3%
  Degree of Corneal Neovascularization, OS: 5% and 35% and 22% and 0%
[1]; 50 mg/ml
  mean inhibition of neovascularization: about 83.5%
[1]; 50 mg/ml, mean ± standard deviation, n = 8
  mean percent of neovascularization relative to total corneal area: mean = 15.2 ± 13.3% (n = 8)
[1]; 50 mg/ml, mean ± standard deviation, n = 8, listed as ascorbic acid pH neutralized
  mean percent of neovascularization relative to total corneal area: about 16.5%
[1]; 50 mg/ml, listed as neutralized ascorbic acid
  mean inhibition of neovascularization: significant inhibition compared to control eyes
[1]; 100 mg (100 mg/ml)
  Degree of Corneal Neovascularization, OD: 0% and 31% and 15% and 28%
  Degree of Corneal Neovascularization, OS: 54% and 5% and 3% and 0%
[1]; 100 mg/ml
  mean inhibition of neovascularization: about 82%
[1]; [3]
  mean percent of neovascularization relative to total corneal area: AVE = 17.0 ± 19.3% (n = 8)
[1]; 100 mg/ml, mean ± standard deviation, n = 8, listed as ascorbic acid pH neutralized
  mean percent of neovascularization relative to total corneal area: about 18%
[1]; 100 mg/ml, mean ± standard deviation, n = 8, listed as pH neutralized ascorbic acid
  mean percent of neovascularization relative to total corneal area: 17.0%
[1]; [4]
  mean inhibition of neovascularization: 83.0%
[1]; concentrations ranging from 100 mg/ml to 500 μg/ml
  inhibition of corneal neovascularization: significantly inhibited corneal neovascularization
[2]; 1 mg/ml, n=6
  decrease in ERG: no significant decrease in ERG
[2]; 10 mg/ml, n=6
  decrease in ERG: no significant decrease in ERG
[2]; 100 mg/ml, two eyes, listed as pH neutralized ascorbic acid
  decrease in ERG: 100%
[2]; [4]
  ocular findings (retinal detachment, cataracts, vitreous haze, retinal edema): neither cataracts nor retinal detachment; also recorded: vitreous haze and retinal edema

## O=C1O[C@H]([C@@H](O)CO)C(O)=C1O [Ascorbic Acid Non pH Neutralized, ascorbic acid, reference compound]
[1]; 100 mg (100 mg/ml)
  Degree of Corneal Neovascularization, OD: 10% and 25% and 20% and 0%
  Degree of Corneal Neovascularization, OS: 33% and 30% and 22% and 0%
[1]; 100 mg/ml
  mean inhibition of neovascularization: about 81%
[1]; [3]
  mean percent of neovascularization relative to total corneal area: AVE = 17.5 ± 12.8% (n = 8)
[1]; 100 mg/ml, mean ± standard deviation, n = 8, listed as ascorbic acid non-pH neutralized
  mean percent of neovascularization relative to total corneal area: about 19%
[1]; 100 mg/ml, mean ± standard deviation, n = 8, listed as non-neutralized ascorbic acid
  mean percent of neovascularization relative to total corneal area: 17.5%
[1]; 100 mg/ml, listed as non-neutralized ascorbic acid
  mean inhibition of neovascularization: 82.5%
[2]; 1 mg/ml, n=6
  decrease in ERG: no significant decrease in ERG
[2]; 10 mg/ml, n=6
  decrease in ERG: no significant decrease in ERG
[2]; 100 mg/ml, two eyes, listed as non-pH neutralized ascorbic acid
  decrease in ERG: 60% and 70%
[2]; 100 mg/ml, listed as non-pH neutralized ascorbic acid
  ocular findings (retinal detachment, cataracts, vitreous haze, retinal edema): partial retinal detachment
